From patent publication US20240336658A1, “CYCLIC PEPTIDE AND PREPARATION METHOD AND USE THEREOF” (HANGZHOU HUIBO SCIENCE AND TECHNOLOGY CO., LTD, priority 2021, published 2024)

Legend:
[1] = tested on: full-thickness skin defect wound surfaces; experiment: Effect of Hst1-MAD cyclic peptide on wound repair in mice (Example 22): healing rate, histology, immunohistochemistry, immunofluorescence double staining, Western Blot; assay type: in vivo, C57 BL/6 mice
Method: […]. 36 healthy male special pathogen-free grade C57 BL/6 mice (purchased from Guangdong Experimental Animal Center) of 6-8 weeks old and weighing 22-28 g. They were intraperitoneally injected with 5 ml/kg of 1% pentobarbital sodium for anesthesia. After the mice had no corneal reflex, the hair on their backs was carefully removed and disinfected with alcohol. […] full-thickness skin defect wound surfaces were prepared on the back of each mouse by using a circular skin punch. […]. Each wound surface was added with 0.5 ml of four drugs respectively, and administration was conducted every day until the wound surfaces of the experimental groups healed. Photographs were taken on days 0, 3, 5, and 10 after surgery, and wound tissues were sampled on days 3, 5, and 10 for subsequent pathological staining.
was observed and photographed with a digital camera (see FIG. 19), and the wound healing rate was calculated (see FIG. 20). Wound healing rate=(wound area immediately after injury−unhealed wound area at each time point)÷wound area immediately after injury×100%.
The wound specimens were fixed in 4% paraformaldehyde for 48 hours, rinsed with tap water for 10 minutes, dehydrated with graded ethanol, permeabilized with xylene, and embedded in paraffin to prepare 4 μm thick sections. Some sections were taken and subjected to HE staining to detect an epidermal thickness and subjected to Masson staining to detect newly grown collagen. Through hematoxylin-cosin staining (HE), the effects of the four groups of drugs on newly grown epidermal at the wound surface on day 10 were evaluated (FIGS. 21 and 22). Through Masson staining, the effects of the four groups of drugs on newly grown collagen at the wound surface on days 5 and 10 were evaluated (FIGS. 23 and 24). 5 sections were taken from each mouse, and 5 fields of view were selected for each section. Data analysis was performed using the software Image-pro Plus.
and rehydrated, subjected to antigen thermal repair with a 0.1 mol/L citric acid buffer (with a pH value of 6.0) for 20 minutes, treated with hydrogen peroxide with a volume fraction of 10% for inactivation of endogenous peroxidase for 10 minutes, and blocked with 50 g/L of bovine serum albumin for 2 hours. It was added with a rabbit anti-mouse CD31 primary antibody (with a dilution ratio of 1:300) and a mouse anti-VEGF (with a dilution ratio of 1:100), incubated overnight at 4° C., and washed with PBS. It was rewarmed for 1 hour, washed with PBS, added dropwise with ready-to-use biotinylated goat anti-mouse and goat anti-rabbit IgG secondary antibodies, incubated for 2 hours, and washed with PBS. It was subjected to DAB development, hematoxylin counterstaining. gradient ethanol dehydration, xylene permeabilization, and resin blocking. 5 sections were taken from each mouse, and 5 fields of view were selected for each section. The sections were observed under a 400× inverted fluorescence microscope, and analyzed for the number of CD31-positive blood vessels (see FIG. 25) and VEGF expression amounts (see FIG. 26) by using Image-pro Plus software.
The specific steps were: the previous steps were the same as those of 1.3.3, and they were incubated with the antibodies MHCII (orb101661; 1:500; Biorbyt Biotechnology Co., Ltd., Wuhan, CN), CD11c (97585; 1:200; Cell Signaling Technology Inc., Boston, MA), CD68 (GB11067; 1:300; Servicebio Inc.), CD80 (GB11034; 1:300; Servicebio Inc.), CD206 (GB11062; 1:500; Servicebio Inc.), claudin1 (37-4900; 1:100; Thermo Fisher Scientific Co., Ltd, Shanghai, CN) and claudin2 (32-5600; 1:200; Thermo Fisher Scientific Co., Ltd.) at 4° C. overnight. The fluorescent-labeled secondary antibodies were incubated at room temperature for 1 h, followed by 4′,6-diamidino-2′-phenylindole (DAPI) (G1012; Google Biotechnology Co., Ltd., Wuhan, CN). The stained sections were photographed by using a fluorescence microscope (Nikon Eclipse TI-SR. Tokyo, Japan). […]

fibroblasts (NIH/3T3) = experiment: Scratch experiment, Hst1-MAD cyclic peptides (Example 23); assay type: cell-based; conditions: dose required to achieve the same pharmaceutical effect in the scratch experiment
From the text: In this example, the propargylglycine-Hst1-MAD cyclic peptide, the homopropargylglycine-Hst1-MAD cyclic peptide, the dihomopropargylglycine-Hst1-MAD cyclic peptide and the linear Hst1 prepared in Examples 13, 14, and 15, and the Hst1-MAD head-to-tail cyclic peptide or N-terminal and C-terminal cyclized peptide prepared by the amide bond cyclization method provided by the literature of for example Sortase A as a tool for high-yield histatin cyclization, Jan G. M. Bolscher, The FASEB Journal. Research Communication, were adopted respectively, the reaction time was recorded, the yield of the reaction product was detected by HPLC, the proportion of side reactions in the reaction product was calculated, and activity comparison was performed. The activity comparison method was to calculate the dose required to achieve the same pharmaceutical effect through a scratch experiment. […] After 12 hours and 24 hours of culture, the scratched area of each group was calculated by using imageJ (Rawak Software, Inc. Germany) software, and the scratch area at 0 hour was an initial scratch area. The scratch healing rate was calculated in the following manner: W % (scratch healing rate)=(W0−Wt)/W0×100%, where W0=an initial scratch area, and Wt=a remaining scratch area; and the results were as shown in Table 14.

[2] = day 3 after surgery, Western Blot, 10 μM Histatin1
[3] = day 10, immunofluorescence, 1 μM Click-Hst1-MAD, 1 μM Hst1-MAD, 10 μM Histatin1

In the case of “Linear Hst1: linear peptide Hst1 (Histatin1), amino acid sequence SEQ ID NO.1”, the “number of M2 macrophages (CD68+ and CD206+)” value ([1]; day 3, 1 μM Click-Hst1-MAD, 10 μM Hst1, M±SD) is reported as 12.67±7.34, the “expression level of HO-1 relative to the control group” value [1, 2] is reported as 1.80 times and the “expression level of Nrf2 relative to the control group” value [1, 2] is reported as 1.27 times. For the same substance, the “expression level of NQO1 relative to the control group” value ([1]; day 3 after surgery, Western Blot, 10 μM Hst1) was 2.08 times, the “number of dendritic cells (MHCII+ and CD11c+) relative to the control group” value ([1]; day 3 after surgery, 10 μM Hst1, 1 μM Click-Hst1-MAD) was 1.75 times and the VEGF expression amount ([1]; day 5, 1 μM Click-Hst1-MAD, 10 μM Histatin1, 1 μM Hst1-MAD compared with each other) was “comparable”. The “expression levels of the dermal collagen” value ([1]; day 5, 1 μM Hst1-MAD and 10 μM Histatin1 compared with each other) was “equivalent”, the Claudin1 expression intensity [1, 3] was “equivalent expression level of Claudin1” and the Claudin2 expression intensity [1, 3] was “no obvious effect on promoting Claudin2 expression”. For the same substance, the VEGF expression amount ([1]; day 10, 1 μM Click-Hst1-MAD, 10 μM Histatin1) was “higher”, the “number of dendritic cells (MHCII+ and CD11c+)” value ([1]; days 3 and 5 evaluated, 1 μM Click-Hst1-MAD, 1 μM Hst1-MAD, 10 μM Histatin1) was “significantly higher than that in the Control group” and the “number of M1 macrophages (CD68+ and CD80+)” value ([1]; days 3 and 5 evaluated, 1 μM Hst1-MAD, 10 μM Histatin1) was “lower than that in the Control group”. The “number of CD31-positive blood vessels” value ([1]; days 5 and 10, immunohistochemistry, 1 μM Click-Hst1-MAD, 1 μM Hst1-MAD, 10 μM Histatin1) was “significantly higher than that in the Control group” and the “Dosage of agents required for scratch test” value (fibroblasts (NIH/3T3)) was 10 µM.
